The structures appear in SMILES notation. Where two headings read alike, the source gives them in different places.

This experiment deals with M. bovis BCG. The experiment can be described thus: microbe, parasite or virus in culture. Format: cell-based, Mycobacterium bovis BCG. As to conditions: Mycobacterium tuberculosis variant bovis BCG, BCG, 192 h.
[1] abbreviates: read-out: Antimycobacterial activity % inhibition at 100 μg/ml Aerobic/Active stage.
[2] abbreviates: read-out: Antimycobacterial activity % inhibition at 100 μg/ml Anearobic/Dormant stage.

Consider `c1ccc(Cn2cc(CSc3ncn[nH]3)nn2)cc1` [1a], for which the inhibition at 100 µg/mL is, setting by setting: under setting [1], 3%; under setting [2], 4%.

As for `Cc1n[nH]c(SCc2cn(Cc3ccccc3)nn2)n1` [1b], the inhibition at 100 µg/mL by setting is: under setting [1], 10%; under setting [2], 14%.

Regarding `CC(C)(C)c1n[nH]c(SCc2cn(Cc3ccccc3)nn2)n1` [1c], the inhibition at 100 µg/mL runs as follows: under setting [1], 3%; under setting [2], 11%.

As for `Cc1nc(SCc2cn(Cc3ccccc3)nn2)nn1Cc1cn(Cc2ccccc2)nn1` [2b, 1-benzyl-4-((1-((1-benzyl-1H-1,2,3-triazol-4-yl)methyl)-5-methyl-1H-1,2,4-triazol-3-ylthio)methyl)-1H-1,2,3-triazole], the inhibition at 100 µg/mL stood at 8% under setting [1] and 12% under setting [2].

`CC(C)(C)c1nc(SCc2cn(Cc3ccccc3)nn2)nn1Cc1cn(Cc2ccccc2)nn1` [2c, 1-benzyl-4-((1-((1-benzyl-1H-1,2,3-triazol-4-yl)methyl)-5-tert-butyl-1H-1,2,4-triazol-3-ylthio)methyl)-1H-1,2,3-triazole]: the inhibition at 100 µg/mL came to 8% under setting [1] and 15% under setting [2].

For the molecule `COc1ccc(-c2nc(SCc3cn(Cc4ccccc4)nn3)nn2Cc2cn(Cc3ccccc3)nn2)cc1` [2e, 1-benzyl-4-((1-((1-benzyl-1H-1,2,3-triazol-4-yl)methyl)-5-(4-methoxyphenyl)-1H-1,2,4-triazol-3-ylthio)methyl)-1H-1,2,3-triazole], the inhibition at 100 µg/mL is, setting by setting: under setting [1], 1%; under setting [2], 8%.

`Clc1ccc(-c2nc(SCc3cn(Cc4ccccc4)nn3)nn2Cc2cn(Cc3ccccc3)nn2)cc1` [2f, 1-benzyl-4-((1-((1-benzyl-1H-1,2,3-triazol-4-yl)methyl)-5-(4-chlorophenyl)-1H-1,2,4-triazol-3-ylthio)methyl)-1H-1,2,3-triazole]: the inhibition at 100 µg/mL under setting [1] was 21% and the inhibition at 100 µg/mL under setting [2] stood at 17%.

For the molecule `c1ccc(Cn2cc(CSc3ncnn3Cc3cn(Cc4ccccc4)nn3)nn2)cc1` [3a, 1-benzyl-4-((1-((1-benzyl-1H-1,2,3-triazol-4-yl)methyl)-1H-1,2,4-triazol-5-ylthio)methyl)-1H-1,2,3-triazole], the inhibition at 100 µg/mL was found to be 8% under setting [1] and 3% under setting [2].

Take `Cc1nc(SCc2cn(Cc3ccccc3)nn2)n(Cc2cn(Cc3ccccc3)nn2)n1` [3b, 1-benzyl-4-((1-((1-benzyl-1H-1,2,3-triazol-4-yl)methyl)-3-methyl-1H-1,2,4-triazol-5-ylthio)methyl)-1H-1,2,3-triazole]: the inhibition at 100 µg/mL was found to be 85% under setting [1] and 76% under setting [2].

On to `CC(C)(C)c1nc(SCc2cn(Cc3ccccc3)nn2)n(Cc2cn(Cc3ccccc3)nn2)n1` [3c, 1-benzyl-4-((1-((1-benzyl-1H-1,2,3-triazol-4-yl)methyl)-3-tert-butyl-1H-1,2,4-triazol-5-ylthio)methyl)-1H-1,2,3-triazole], for which the inhibition at 100 µg/mL is, setting by setting: under setting [1], 10%; under setting [2], 13%.

For the molecule `O=[N+]([O-])c1ccc(-c2nc(SCc3cn(Cc4ccccc4)nn3)n(Cc3cn(Cc4ccccc4)nn3)n2)cc1` [3d, 1-benzyl-4-((1-((1-benzyl-1H-1,2,3-triazol-4-yl)methyl)-3-(4-nitrophenyl)-1H-1,2,4-triazol-5-ylthio)methyl)-1H-1,2,3-triazole], the inhibition at 100 µg/mL runs as follows: under setting [1], 13%; under setting [2], 11%.

On to `COc1ccc(-c2nc(SCc3cn(Cc4ccccc4)nn3)n(Cc3cn(Cc4ccccc4)nn3)n2)cc1` [3e, 1-benzyl-4-((1-((1-benzyl-1H-1,2,3-triazol-4-yl)methyl)-3-(4-methoxyphenyl)-1H-1,2,4-triazol-5-ylthio)methyl)-1H-1,2,3-triazole], for which the inhibition at 100 µg/mL came out at 86% under setting [1] and 82% under setting [2].

In the case of `Clc1ccc(-c2nc(SCc3cn(Cc4ccccc4)nn3)n(Cc3cn(Cc4ccccc4)nn3)n2)cc1` [3f, 1-benzyl-4-((1-((1-benzyl-1H-1,2,3-triazol-4-yl)methyl)-3-(4-chlorophenyl)-1H-1,2,4-triazol-5-ylthio)methyl)-1H-1,2,3-triazole], the inhibition at 100 µg/mL runs as follows: under setting [1], 31%; under setting [2], 4%.

Take `C=CCSc1nc[nH]n1` [4a, 3-allylthio-1H 1,2,4 triazole]: the inhibition at 100 µg/mL under setting [1] came to 51% and the inhibition at 100 µg/mL under setting [2] came out at 32%.

In the case of `C=CCSc1nc(C)n[nH]1` [4b, 3-(allylthio)-5-methyl-1H-1,2,4-triazole], the inhibition at 100 µg/mL reads like this: under setting [1], 98%; under setting [2], 97%.

`C=CCSc1nc(C(C)(C)C)n[nH]1` [4c, 3-(allylthio)-5-tert-butyl-1H-1,2,4-triazole]: the inhibition at 100 µg/mL by setting is: under setting [1], 57%; under setting [2], 39%.

In the case of `C=CCSc1nc(-c2ccc([N+](=O)[O-])cc2)n[nH]1` [4d, 3-(allylthio)-5-(4-nitrophenyl)-1H-1,2,4-triazole], the inhibition at 100 µg/mL was 25% under setting [1] and 14% under setting [2].

As to `C=CCSc1n[nH]c(-c2ccc(OC)cc2)n1` [4e, 3-(allylthio)-5-(4-methoxyphenyl)-1H-1,2,4-triazole], the inhibition at 100 µg/mL runs as follows: under setting [1], 94%; under setting [2], 93%.

In the case of `C=CCSc1ncn(CC=C)n1` [5a, 1-allyl-3-(allylthio)-1H-1,2,4-triazole], the inhibition at 100 µg/mL by setting is: under setting [1], 58%; under setting [2], 42%.

Take `C=CCSc1nc(C)n(CC=C)n1` [5b, 1-allyl-3-(allylthio)-5-methyl-1H-1,2,4-triazole]: the inhibition at 100 µg/mL was determined as 25% under setting [1] and 15% under setting [2].

Regarding `C=CCSc1nc(C(C)(C)C)n(CC=C)n1` [5c, 1-allyl-3-(allylthio)-5-tert-butyl-1H-1,2,4-triazole], the inhibition at 100 µg/mL is, setting by setting: under setting [1], 45%; under setting [2], 36%.

For the molecule `C=CCSc1nc(-c2ccc([N+](=O)[O-])cc2)n(CC=C)n1` [5d, 1-allyl-3-(allylthio)-5-(4-nitrophenyl)-1H-1,2,4-triazole], the inhibition at 100 µg/mL came to 15% under setting [1] and 18% under setting [2].

As for `C=CCSc1nc(-c2ccc(OC)cc2)n(CC=C)n1` [5e, 1-allyl-3-(allylthio)-5-(4-methoxyphenyl)-1H-1,2,4-triazole], the inhibition at 100 µg/mL by setting is: under setting [1], 89%; under setting [2], 84%.

Turning to `C=CCSc1nc(-c2ccc(Cl)cc2)n(CC=C)n1` [5f, 1-allyl-3-(allylthio)-5-(4-chlorophenyl)-1H-1,2,4-triazole], the inhibition at 100 µg/mL reads like this: under setting [1], 94%; under setting [2], 91%.

In the case of `C=CCSc1ncnn1CC=C` [6a, 1-allyl-5-(allylthio)-1H-1,2,4-triazole], the inhibition at 100 µg/mL reads like this: under setting [1], 65%; under setting [2], 60%.

For the molecule `C=CCSc1nc(C)nn1CC=C` [6b, 1-allyl-5-(allylthio)-3-methyl-1H-1,2,4-triazole], the inhibition at 100 µg/mL by setting is: under setting [1], 22%; under setting [2], 10%.

As for `C=CCSc1nc(C(C)(C)C)nn1CC=C` [6c, 1-allyl-5-(allylthio)-3-tert-butyl-1H-1,2,4-triazole], the inhibition at 100 µg/mL by setting is: under setting [1], 30%; under setting [2], 33%.

In the case of `C=CCSc1nc(-c2ccc([N+](=O)[O-])cc2)nn1CC=C` [6d, 1-allyl-5-(allylthio)-3-(4-nitrophenyl)-1H-1,2,4-triazole], the inhibition at 100 µg/mL was found to be 40% under setting [1] and 12% under setting [2].

For the molecule `C=CCSc1nc(-c2ccc(OC)cc2)nn1CC=C` [6e, 1-allyl-5-(allylthio)-3-(4-methoxyphenyl)-1H-1,2,4-triazole], the inhibition at 100 µg/mL came out at 88% under setting [1] and 83% under setting [2].

Regarding `C=CCSc1nc(-c2ccc(Cl)cc2)nn1CC=C` [6f, 1-allyl-5-(allylthio)-3-(4-chlorophenyl)-1H-1,2,4-triazole], the inhibition at 100 µg/mL amounted to 26% under setting [1] and 14% under setting [2].

For `C#CCS(=O)(=O)c1nc[nH]n1` [7a, 5-(prop-2-ynylsulfonyl)-1H-1,2,4-triazole], the inhibition at 100 µg/mL under setting [1] is 42% and the inhibition at 100 µg/mL under setting [2] turned out to be 23%.

In the case of `C#CCS(=O)(=O)c1n[nH]c(C)n1` [7b, 3-methyl-5-(prop-2-ynylsulfonyl)-1H-1,2,4-triazole], the inhibition at 100 µg/mL is, setting by setting: under setting [1], 92%; under setting [2], 82%.

For the molecule `C#CCS(=O)(=O)c1nc(C(C)(C)C)n[nH]1` [7c, 3-tert-butyl-5-(prop-2-ynylsulfonyl)-1H-1,2,4-triazole], the inhibition at 100 µg/mL runs as follows: under setting [1], 76%; under setting [2], 74%.

Regarding `C#CCS(=O)(=O)c1n[nH]c(-c2ccc([N+](=O)[O-])cc2)n1` [7d, 3-(4-nitrophenyl)-5-(prop-2-ynylsulfonyl)-1H-1,2,4-triazole], the inhibition at 100 µg/mL runs as follows: under setting [1], 96%; under setting [2], 91%.

For `C#CCS(=O)(=O)c1n[nH]c(-c2ccc(OC)cc2)n1` [7e, 3-(4-methoxyphenyl)-5-(prop-2-ynylsulfonyl)-1H-1,2,4-triazole], the inhibition at 100 µg/mL under setting [1] amounted to 88% and the inhibition at 100 µg/mL under setting [2] was determined as 82%.

With `C#CCS(=O)(=O)c1n[nH]c(-c2ccc(Cl)cc2)n1` [7f, 3-(4-chlorophenyl)-5-(prop-2-ynylsulfonyl)-1H-1,2,4-triazole], the inhibition at 100 µg/mL reads like this: under setting [1], 88%; under setting [2], 86%.

As for `C#CCSc1nc(C(C)(C)C)nn1CC=C` [8a, 1-allyl-3-tert-butyl-5-(prop-2-ynylthio)-1H-1,2,4-triazole], the inhibition at 100 µg/mL amounted to 76% under setting [1] and 74% under setting [2].

On to `C#CCSc1nc(C(C)(C)C)n(CC=C)n1` [8b, 1-allyl-5-tert-butyl-3-(prop-2-ynylthio)-1H-1,2,4-triazole], for which the inhibition at 100 µg/mL was determined as 96% under setting [1] and 91% under setting [2].

Take `C#CCn1nc(C(C)(C)C)nc1SCC=C` [8c, 5-(allylthio)-3-tert-butyl-1-(prop-2-ynyl)-1H-1,2,4-triazole]: the inhibition at 100 µg/mL came out at 98% under setting [1] and 79% under setting [2].

The values are drawn from patent US8865910B2 (priority 2010, dated 2014).
